In data set [1] the test system is VA patients with PTSD (PTSD symptoms, PTSD Checklist). Description: TreeScan nested case-control study of medications associated with PTSD symptom improvement (PTSD Checklist) in VA records. Format: in vivo, human. As for the experimental part:
Study Sample and Data Sources. A nested case-control study was conducted within a previously established retrospective cohort that included all VA users with a clinical diagnosis of PTSD (International Classification of Diseases [ICD]-9:309.81, ICD-10: F43.1x) from Oct. 1, 1999 through Sep. 30, 2019 (Shiner et al. (2021) J Eval Clin Pract.). The data source contains information on services use, clinical diagnoses, filled prescriptions, and patient-reported outcome measures (PROMs) for PTSD using the PTSD Checklist (PCL) for these patients. This study was approved by the Veterans Institutional Review Board of Northern New England.
The goal of the current study was to evaluate any filled medications associated with PTSD symptom improvement, and as such, the analytic sample for this study included only patients with PROMs that were at least 30 days apart. 30 days was selected to allow for medications to be taken for at least one full course (typically 28 days). Patients with PROMs more than 365 days apart were excluded as these are unlikely to provide an accurate assessment of PTSD symptom change between the two time points. For patients who had two overlapping PROM intervals, those closest to 84 days in length were chosen to emulate typical PTSD medication efficacy trials (Watts et al. (2013) J Clin Psychiatry. 74: e541-550). When a patient had two or more overlapping intervals at exactly 84 days, the historically earliest interval was chosen. If patients had multiple non-overlapping intervals, all were included. Patients who met the selection criteria for PTSD in the original cohort and had at least one PROM pair where they started a new medication (defined below) constituted the overall analytic sample for the current study.
PTSD Improvement Cases and No Improvement Controls. In order to maximize the number of patients with available symptomatic measurement, two different versions of a PROM for PTSD were integrated into a single dataset (Shiner et al. (2021) J Eval Clin Pract.). The two PROMs were the PCL versions aligned to the Diagnostic and Statistical Manual of Mental Disorders (DSM), version IV and Version 5 (APA (2000): Diagnostic and Statistical Manual of Mental Disorders. 4th Edition. Text Revision: DSM-IV-TR. Arlington, VA: American Psychiatric Association: APA (2013): Diagnostic and Statistical Manual of Mental Disorders: Fifth Edition (DSM-5). Washington, D.C.: American Psychiatric Association), which will heretofore be called the PCL-IV and the PCL-5 (Blevins et al. (2015) J Trauma Stress. 28:489-498: Weathers et al. (1993) Trauma. Coping. and Adaptation. San Antonio, Texas: International Society for Traumatic Stress Studies, 9th Annual Meeting). […] A validated crosswalk (ICC=0.96) was used to convert all values to PCL-5 scoring (Moshier et al. (Under review): An empirical crosswalk for the PTSD Checklist: Translating DSM-IV to DSM-5). PTSD improvement cases were defined by a clinically meaningful improvement, which was a decrease of 15 points or more between assessment points (Lee et al. (2019) Reliable Change Index and Clinically Significant Margins for the CAPS-5 and PCL-5 among Veterans. Boston, MA: International Society for Traumatic Stress Studies, 35th Annual Meeting). […] Thus, the no PTSD improvement control group was defined as worsening of symptoms or reductions of up to 7 points on the PCL. Improvements between 8 and 14 points were of uncertain clinical significance and were therefore excluded.
Identification and Classification of New Medications. The predictors of interest were initiation of medications for any indication. Candidate agents included those that were started in the interval between PCL pairs and continued for at least a 28-day supply. When patients started multiple medications between a given PCL pair, they contributed information for each of the medications in the tree.

For data set [2] the following is noted: FDA clinical review NDA 209394; cited from earlier work.
[3] abbreviates: all patients in the overall sample.
The mark [4] stands for this setting: baseline PCL 38 or higher, PTSD diagnosis within 30 days, without any concurrent evidence-based treatment.
The mark [5] stands for this setting: baseline PCL score of 38 or higher and PTSD diagnosis within 30 days.
[6] abbreviates: case = improved by 15 or more points on PTSD Checklist, all patients in the overall sample.
Setting [7] is: improvement in PTSD, all patients in the overall sample.
[8] abbreviates: overall sample without any concurrent evidence-based treatment.

The source of these data is patent publication US20250032484A1, “THERAPEUTIC TARGETS AND AGENTS FOR THE TREATMENT OF POSTTRAUMATIC STRESS DISORDER” (priority 2021, published 2025).

Consider glecaprevir, for which the “EXP = Expected Cases” value in data set [1] (setting [3]) turned out to be 16; in data set [1] (setting [4]), 4; in data set [1] (setting [5]), 14; in data set [1] (setting [8]), 5. In addition, the “O:E = Observed Cases over Expected Cases” value in data set [1] (setting [4]) came to 3.52; in data set [1] (setting [5]), 2.21; in data set [1] (setting [7]) it was 2.09; in data set [1] (improvement in PTSD, all patients in the overall sample, listed as glecaprevir) it was 2.09; in data set [1] (setting [8]), 3.09. Also, the “OBS = Observed Cases” value stood at 14 in data set [1] (setting [4]), 30 in data set [1] (setting [5]), 33 in data set [1] (setting [6]) and 14 in data set [1] (setting [8]). For the same compound, the BBB permeability result in data set [2] was “poor BBB permeability”.
Regarding `CNCC[C@@H](Oc1ccccc1C)c1ccccc1` [Atomoxetine], the results for the “EXP = Expected Cases” value in data set [1] (setting [3]) and in data set [1] (setting [5]) were 74 and 65, respectively. Besides, the “O:E = Observed Cases over Expected Cases” value in data set [1] (setting [5]) amounted to 1.41; in data set [1] (setting [7]) it was 1.40. Besides, the “OBS = Observed Cases” value in data set [1] (setting [5]) was found to be 92; in data set [1] (setting [6]) it was 104.
As to Naltrexone, the “EXP = Expected Cases” value is on record as 504 in data set [1] (setting [3]) and 444 in data set [1] (setting [5]). The figures for the “O:E = Observed Cases over Expected Cases” value in data set [1] (setting [5]) and in data set [1] (setting [7]) were 1.21 and 1.20, respectively. For the same compound, the figures for the “OBS = Observed Cases” value in data set [1] (setting [5]) and in data set [1] (setting [6]) were 536 and 605, respectively.
As to `COc1ccc2[nH]cc(CCNC(C)=O)c2c1` [Melatonin], the “EXP = Expected Cases” value is listed as 1161 in data set [1] (setting [3]) and 1033 in data set [1] (setting [5]). Besides, the “O:E = Observed Cases over Expected Cases” value in data set [1] (setting [5]) came to 1.10; in data set [1] (setting [7]) it was 1.12. Further, the “OBS = Observed Cases” value in data set [1] (setting [5]) was found to be 1131; in data set [1] (setting [6]), 1295.
`CC(C)OC(=O)[C@H](C)N[P@](=O)(OC[C@H]1O[C@@H](n2ccc(=O)[nH]c2=O)[C@](C)(F)[C@@H]1O)Oc1ccccc1` [sofosbuvir]: the “association with PTSD symptom improvement, in words (statistical alert at P<0.1)” value in data set [1] (overall sample) is reported as “Neither sofosbuvir nor ledipasvir were associated with a significantly higher than expected improvement”.
